In ChEMBL document CHEMBL1129506, “2,4-Diarylpyrrolidine-3-carboxylic acids--potent ETA selective endothelin receptor antagonists. 1. Discovery of A-127722” (J Med Chem, 1996):

What was measured:
Endothelin receptor = target: T1, Endothelin receptor (Rattus norvegicus, UniProt P26684+P21451); assay: Inhibition of phosphoinositol hydrolysis of MMQ cells.; format: functional, cell-based
T1 sequence (P26684 whole entry): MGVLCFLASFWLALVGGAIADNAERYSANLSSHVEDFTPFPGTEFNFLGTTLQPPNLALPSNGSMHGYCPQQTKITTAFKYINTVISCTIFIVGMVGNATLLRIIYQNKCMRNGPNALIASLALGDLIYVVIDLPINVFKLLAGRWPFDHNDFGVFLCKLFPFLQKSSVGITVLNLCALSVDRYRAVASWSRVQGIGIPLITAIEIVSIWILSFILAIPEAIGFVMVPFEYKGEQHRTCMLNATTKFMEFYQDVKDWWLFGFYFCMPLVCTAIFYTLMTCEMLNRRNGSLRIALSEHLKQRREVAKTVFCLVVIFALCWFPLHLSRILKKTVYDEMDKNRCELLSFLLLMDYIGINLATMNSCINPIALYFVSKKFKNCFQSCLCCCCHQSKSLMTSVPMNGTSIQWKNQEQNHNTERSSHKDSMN
T1 sequence (P21451 whole entry): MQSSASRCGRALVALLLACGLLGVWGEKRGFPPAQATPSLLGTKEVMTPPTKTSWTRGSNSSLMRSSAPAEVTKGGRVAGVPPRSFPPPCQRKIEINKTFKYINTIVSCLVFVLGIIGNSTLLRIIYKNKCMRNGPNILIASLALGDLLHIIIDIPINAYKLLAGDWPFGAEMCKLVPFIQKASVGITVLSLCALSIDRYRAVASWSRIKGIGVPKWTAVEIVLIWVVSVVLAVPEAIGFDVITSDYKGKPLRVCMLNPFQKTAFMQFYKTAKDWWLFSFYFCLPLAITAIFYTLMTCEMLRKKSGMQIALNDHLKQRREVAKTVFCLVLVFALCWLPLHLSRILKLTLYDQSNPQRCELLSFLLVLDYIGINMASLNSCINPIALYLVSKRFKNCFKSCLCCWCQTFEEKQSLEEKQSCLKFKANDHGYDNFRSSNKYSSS

[1] = target: T2, Endothelin receptor type B (Sus scrofa, UniProt P35463); assay: Inhibitory activity measured against Endothelin B receptor binding to porcine cerebellum; format: tissue-based
T2 sequence (P35463 whole entry): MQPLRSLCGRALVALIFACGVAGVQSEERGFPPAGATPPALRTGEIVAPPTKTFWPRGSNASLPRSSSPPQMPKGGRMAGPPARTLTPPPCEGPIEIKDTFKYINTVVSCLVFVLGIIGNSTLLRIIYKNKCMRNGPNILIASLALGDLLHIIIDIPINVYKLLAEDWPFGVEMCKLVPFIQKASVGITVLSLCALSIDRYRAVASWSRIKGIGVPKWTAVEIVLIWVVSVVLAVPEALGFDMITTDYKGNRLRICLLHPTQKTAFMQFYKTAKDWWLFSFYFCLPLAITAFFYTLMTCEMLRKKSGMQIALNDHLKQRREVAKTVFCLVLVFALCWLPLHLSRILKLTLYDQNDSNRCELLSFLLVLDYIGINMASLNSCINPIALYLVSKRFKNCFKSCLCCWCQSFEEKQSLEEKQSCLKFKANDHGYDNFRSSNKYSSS

Endothelin-1 receptor [2] = target: T3, Endothelin-1 receptor (Rattus norvegicus, UniProt P26684); assay: Inhibitory activity against the Endothelin A receptor of rat MMQ cells; format: cell-based
T3 sequence (P26684 whole entry): T1 sequence (P26684 whole entry)

Endothelin-1 receptor [3] = target: T4, Endothelin-1 receptor (Homo sapiens, UniProt P25101); assay: Radioligand binding selectivity to human Endothelin A receptor in chinese hamster ovary cells; format: cell-based, CHO
T4 sequence (P25101 whole entry): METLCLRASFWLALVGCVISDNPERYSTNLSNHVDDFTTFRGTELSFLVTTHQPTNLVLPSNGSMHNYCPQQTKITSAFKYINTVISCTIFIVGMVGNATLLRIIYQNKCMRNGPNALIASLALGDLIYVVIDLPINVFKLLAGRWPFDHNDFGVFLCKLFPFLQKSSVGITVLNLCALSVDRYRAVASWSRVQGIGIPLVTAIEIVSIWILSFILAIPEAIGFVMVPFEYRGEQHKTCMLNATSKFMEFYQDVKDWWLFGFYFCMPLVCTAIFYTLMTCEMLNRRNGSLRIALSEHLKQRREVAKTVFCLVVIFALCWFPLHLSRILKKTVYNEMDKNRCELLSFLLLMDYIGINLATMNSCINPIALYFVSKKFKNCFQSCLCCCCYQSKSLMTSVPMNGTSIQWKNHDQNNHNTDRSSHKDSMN

[4] = target: T5, Endothelin receptor type B (Homo sapiens, UniProt P24530); assay: Radioligand binding selectivity to human Endothelin B receptor in chinese hamster ovary cells; format: cell-based, CHO
T5 sequence (P24530 whole entry): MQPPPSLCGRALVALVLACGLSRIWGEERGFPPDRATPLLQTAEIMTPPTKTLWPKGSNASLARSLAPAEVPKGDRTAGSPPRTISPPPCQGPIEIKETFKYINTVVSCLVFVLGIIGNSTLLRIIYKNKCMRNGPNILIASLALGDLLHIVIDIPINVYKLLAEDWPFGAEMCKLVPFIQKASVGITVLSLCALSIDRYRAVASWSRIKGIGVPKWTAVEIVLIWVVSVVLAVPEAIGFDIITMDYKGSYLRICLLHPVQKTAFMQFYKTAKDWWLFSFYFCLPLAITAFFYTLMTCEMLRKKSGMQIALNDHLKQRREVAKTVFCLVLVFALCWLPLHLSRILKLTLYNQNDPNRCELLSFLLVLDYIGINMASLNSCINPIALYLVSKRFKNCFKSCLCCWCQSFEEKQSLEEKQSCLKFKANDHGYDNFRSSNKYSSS

[5] = target: T5, Endothelin receptor type B; assay: Inhibitory activity against human Endothelin B receptor in chinese hamster ovary cells; format: cell-based, CHO
[6] = target: T2, Endothelin receptor type B; assay: Inhibitory activity was measured against Endothelin B receptor binding to porcine cerebellum; inactive; format: tissue-based
Endothelin-1 receptor [7] = target: T4, Endothelin-1 receptor; assay: Inhibitory activity against human Endothelin A receptor in chinese hamster ovary cells; format: cell-based, CHO

| IC50 (Endothelin receptor) | IC50 [1] | IC50 (Endothelin-1 receptor [2]) | IC50 (Endothelin-1 receptor [3]) | IC50 [4] | Ki [5] | IC50 [6] | Ki (Endothelin-1 receptor [7]) | Compound |
| --- | --- | --- | --- | --- | --- | --- | --- | --- |
| 0.97 nM | 1390 nM | 4.71 nM | 4.88 nM | 1080 nM |  |  |  | CCCCN(C)C(=O)CN1C[C@@H](c2ccc3c(c2)OCO3)[C@H](C(=O)O)[C@H]1c1ccc(OC)cc1 |
|  |  |  |  |  | > 50000 nM |  |  | Cc1noc(NS(=O)(=O)c2cccc3c(N(C)C)cccc23)c1C [BMS-182874] |
| 9.12 nM | 2900 nM | 6.63 nM | 21.3 nM | 4570 nM |  |  |  | CCCN(C)C(=O)CN1C[C@@H](c2ccc3c(c2)OCO3)[C@H](C(=O)O)[C@H]1c1ccc(OC)cc1 |
|  |  | 58 nM |  |  |  | Not Active |  | CCCCN(CCCC)C(=O)CN1CC(c2ccc3c(c2)OCO3)C(C(N)=O)C1c1ccc(OC)cc1 (stereo not given) |
| 0.24 nM | 598 nM |  | 0.55 nM | 397 nM |  |  |  | CCCN(CCC)C(=O)CN1C[C@@H](c2ccc3c(c2)OCO3)[C@H](C(=O)O)[C@H]1c1ccc(OC)cc1 |
|  |  |  |  |  | 5.4 nM |  | 0.13 nM | CCCc1cc(C(=O)O)ccc1OC(C(=O)NS(=O)(=O)c1ccc(C(C)C)cc1)c1ccc2c(c1)OCO2 [L-754142] |
| 24.6 nM | 398 nM | 17.2 nM | 45.3 nM | 579 nM |  |  |  | CCCNC(=O)CN1C[C@@H](c2ccc3c(c2)OCO3)[C@H](C(=O)O)[C@H]1c1ccc(OC)cc1 |
| 0.25 nM | 40 nM | 0.22 nM | 0.81 nM | 211 nM |  |  |  | CCCCN(CCC)C(=O)CN1C[C@@H](c2ccc3c(c2)OCO3)[C@H](C(=O)O)[C@H]1c1ccc(OC)cc1 |
|  |  |  |  |  | 139 nM |  |  | COc1ccc(C2(O)OC(=O)C(c3ccc4c(c3)OCO4)=C2Cc2cc(OC)c(OC)c(OC)c2)cc1 (stereo not given) [PD-156707] |
